Results reported in publication PMC6014988, “Precision therapeutic targeting of human cancer cell motility” (Nature Communications, 2018).

Tests used:
[1] = Three-day MTT cell growth inhibition assay, 1542NPTX; assay type: cell-based, human; details: human, 1542NPTX cells
[2] = test system: 1542NPTX; assay: as above; assay type: cell-based, human; details: Homo sapiens, 72 h, 3 days
[3] = test system: p38 MAPK and HSP27 phosphorylation; assay: Phosphorylation of p38 MAPK and HSP27 in PC3-M cells, Western blot; assay type: cell-based, human; details: 50 µM, 24 hours, then TGFβ
Procedure: Supplementary Figure 9. […] (a) Depiction of […]
established MKK4 pathway regulating human PCa cell metastasis. […]
to MKK4, as measured by fluorescence-based thermal shift assay. Values are the mean±SD (of N=2 replicates) increase in melting temperature (ΔTm) of purified recombinant MKK4 induced by the indicated concentrations of KBU2046 or genistein. […]
in an in vitro kinase assay. The indicated concentrations of KBU2046 were added to recombinant activated MKK4, and its ability to phosphorylate kinase dead p38α MAPK (K53A) was measured by Western blot for total (p38 MAPK) and phosphorylated (pp38 MAPK) forms of […]
HSP27 in cells. PC3-M cells were pre-treated for 24 hours with 50 µM KBU2046 or genistein, as indicated, then with TGFβ, and Western blot performed. All findings are from a single experiment, with similar findings in identical separate experiments, repeated at least once. […]

[4] = test system: NCI-60 cell line panel; assay: NCI 60 cell line panel screening; assay type: cell-based, human; details: initial screening per DTP protocol
Procedure: panel. KBU2046 was submitted to the Developmental Therapeutics Program (DTP) of the US National Cancer Institute (NCI), underwent initial screening across the NCI 60 cell line panel per DTP protocol 1, and the resultant COMPARE diagram is depicted above. Based upon its lack of […]
Supplementary Figure 3. […] Estrogen […]
receptor positive MCF-7 cells were cultured under hormone free conditions transfected pERE-Luc or empty control vector, along with constitutive active β-gal, grown under estrogen-free conditions, and pre-treated for 24 hours with nanomolar concentrations of estradiol, or with micromolar concentrations of genistein or KBU2046, as indicated. Luciferase activity was measured, normalized to that of β-gal, and values expressed as the percent of untreated vector control cells. Values are the mean±SD of a single experiment, with similar results seen in a separate repeat experiment, both in replicates of N=2.
(also on this page, place not known: luciferase/B-gal activity, % untreated vector control)
(1 picture or pasted object on this page, not shown here)

[5] = Schiff-base formation with L-alanine, NMR; assay type: physicochemical; details: 27°C (18 h) then 37°C, total 72 hours
Description: Response to Reviewers' comments:
We wish to thank reviewers for their time and thoughtful review. Please find below point-by-point responses to reviewer queries. Associated changes in the manuscript are underlined.
Reviewer (your email indicates #3, the review letter indicates #4):
1. While Schiff-base formation may be reversible, the reverse reaction may not occur during the life of the protein. Considering KBU2046’s binding affinity is proposed to be driven by a single H-bonding interaction with the carbonyl in question, studies should be conducted to ensure the formation of a Schiff base is not occurring.
Response. To specifically examine Schiff-base formation, we incubated KBU2046 with L-alanine at 27°C (18 h) and then 37°C for a total 72 hours, and observed no change in 1H or 13C NMR spectra of drug from the original observed spectra for KBU2046 alone. This exposure […]
product in the presence of a biologically relevant, representative primary amine. These studies were conducted by co-author Karl Scheidt, Professor of chemistry at Northwestern University.
Attached to this letter is a detailed description of the experiment.
These new experimental findings are concordant with our other findings presented in the manuscript. […]

[6] = Three-day MTT cell growth inhibition assay, 1532NPTX; assay type: cell-based, human; details: human, 1532NPTX cells
[7] = test system: 1532NPTX; assay: as above; assay type: cell-based, human; details: Homo sapiens, 72 h, 3 days
[8] = test system: human cord blood CD34+ stem cells; assay: Hematopoietic stem cell colony formation assay; assay type: cell-based
Procedure: Fourteen-day colony formation assays were conducted as described by us[39], using human cord blood CD34+ stem cells (AllCells Inc.), using MethoCultExpress™ colony growth media (StemCell Technologies Inc.), performed in replicates of N = 2.

Compound O=C1c2ccccc2OCC1c1ccc(F)cc1 (racemic) [KBU2046, (±)-3(4-fluorophenyl)chroman-4-one] has a viability at 3 days, 50 µM [1] of 107%, an IC20 [2] of over 50 µM and an IC50 [2] of over 50 µM. The “downstream phosphorylation of p38 MAPK and HSP27” value [3] was “did not inhibit downstream phosphorylation”, the “toxicity to NCI-60 cells” value [4] was “not toxic” and the “change in 1H or 13C NMR spectra (Schiff-base formation)” value [5] was “no change”. The viability at 3 days, 50 µM [6] was 95.3%, the IC20 [7] was over 50 µM and the IC50 [7] was over 50 µM. The “toxicity to human bone marrow stem cells” value ([8]; 14 days) was “not toxic” and the “toxicity to stem cells” value ([8]; up to 40 micromolar for 14 days) was “no toxicity”.
